From US5391569A, “New chromene compounds having a triene side chain” (Adir et Compagnie, priority 1992, dated 1995)
Like-named read-outs stand apart in the source and are kept apart here.

Experiments:
mouse calvaria [1] = assay: Anti-bone resorption-1: inhibition of hyper-resorption in mouse calvaria (in vitro); format: cell-based; settings: for inhibition at 50 µM / inhibition at 10 µM: hyper-resorption induced by 5×10^-8 M retinoic acid; for inhibition at 7.5 µM: 7,5 μM
[2] = tested on: mice in which a state of hyper-resorption had been induced by a calcium-deficient diet; assay: Anti-bone resorption-2: in vivo urinary [3H] tetracycline excretion in mice with hyper-resorption induced by calcium-deficient diet; settings: calcium-deficient diet (0.4%)
Description: In vivo study according to the measurement method described by Konig, Muhlbauer and Fleisch ("Tumor necrosis factor and interleukine-1 stimulate bone resorption in vivo as measured by urinary [^3 H] tetracycline excretion from prelabeled mice", J. Bone Min. Res., 3, (1988), 621-627). A study was carried out on mice in which a state of hyper-resorption had been induced by a calcium-deficient diet (0.4%).

endogenous membrane PLA2 = assay: Inhibition of liberation of arachidonic acid from isolated rat polymorphonuclears stimulated by ionophore; format: cell-based; settings: Test on rat PMNs; ionophore stimulation
Description: In a cell model involving endogenous membrane PLA2, the compounds of the invention also exerted an inhibiting effect on the liberation of arachidonic acid by their action on isolated rat polymorphonuclears (PLN), the membrane phospholipids of which had been labelled with tritiated arachidonic acid. The degree of activity of the compounds of the invention is assessed by measuring the radioactivity liberated after stimulation by ionophore […] according to the technique described by Sakson, Raz, Denny, Wyche and Needleman (Prostaglandins, 14, (1977), 853, sqq.).

[3] = biological target: porcine pancreatic phospholipase A2 (PLA2) (Sus scrofa, UniProt P00592); assay: Inhibition of liberation of tritiated oleic acid from Escherichia coli membranes by porcine pancreatic phospholipase A2; format: biochemical; settings: Test on Escherichia coli membranes
Sequence of porcine pancreatic phospholipase A2 (PLA2) (P00592 23-146): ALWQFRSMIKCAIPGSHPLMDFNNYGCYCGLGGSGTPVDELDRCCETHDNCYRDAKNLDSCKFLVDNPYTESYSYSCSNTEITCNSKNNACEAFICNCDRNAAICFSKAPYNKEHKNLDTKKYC
Description: The compounds of the present invention have an inhibiting activity on the liberation of tritiated oleic acid previously incorporated into Escherichia coli membranes under the effect of porcine pancreatic phospholipase A2 (PLA2) according to the technique described by Frason, Patriarca and Elsbach (J. Lipid. Res., 15, (1974), 380-388).

mouse calvaria [4] = assay: Formation of osteoid tissue: incorporation of tritiated proline into bone tissue of mouse calvaria; format: cell-based; settings: read-out: Stimulation of formation
Description: An effect promoting the formation of osteoid tissue (incorporation of tritiated proline from the medium into the bone tissue of mouse calvaria) has also been observed with some compounds: […]

## CCOC(=O)/C=C(C)/C=C/C=C(C)/C=C/c1c(C)cc(OC)c(C)c1C [Etretinate, reference compound]
Mouse calvaria [1]
  inhibition at 50 µM: 11%
[2]
  Effect on hyper-resorption / urinary excretion of tritiated tetracycline (in words): tends to increase the urinary excretion of tritiated tetracycline
[2]; oral dose 50 mg/kg
  % variation in urinary [3H] tetracycline excretion: +11%
[2]; oral dose 100 mg/kg
  % variation in urinary [3H] tetracycline excretion: +3%

## Cc1cc(C)c2c(c1)C=C(/C=C/C=C/C=C\C(=O)O)CO2 [Example 2, (2Z,4E,6E)-7-(6,8-Dimethyl-2H-chromen-3-yl) hepta-2,4,6-trienoicacid]
[2]; oral dose 50 mg/kg
  % variation in urinary [3H] tetracycline excretion: -10%
[2]; oral dose 100 mg/kg
  % variation in urinary [3H] tetracycline excretion: -10%
[2]; oral dose 200 mg/kg
  % variation in urinary [3H] tetracycline excretion: -12%

## CC(C)c1ccc2c(c1)C=C(/C=C/C=C/C=C/C(=O)O)CO2 [Example 5, (2E,4E,6E)-7-(6-Isopropyl-2H-chromen-3-yl) hepta-2,4,6-trienoic acid]
Endogenous membrane PLA2
  IC50: 30 µM
[3]
  IC50: 7.5 µM

## CC(C)(C)c1ccc2c(c1)C=C(/C=C/C=C/C=C/C(=O)O)CO2 [Example 6, (2E,4E,6E)-7-(6-Tert.-butyl-2H-chromen-3-yl) hepta-2,4,6-trienoic acid]
Endogenous membrane PLA2
  IC50: 10 µM
[3]
  IC50: 9 µM

## Cc1cc2c(c(C(C)(C)C)c1)OCC(/C=C/C=C/C=C/C(=O)O)=C2 [Example 11, (2E,4E,6E)-7-(6-Methyl-8-tert.-butyl-2H-chromen-3-yl)hepta-2,4,6-trienoic acid]
Endogenous membrane PLA2
  IC50: 5 µM
[3]
  IC50: 6 µM

## CC(C)(C)c1cc2c(c(C(C)(C)C)c1)OCC(/C=C/C=C/C=C/C(=O)O)=C2 [Example 13, (2E,4E,6E)-7-(6,8-Ditert.-butyl-2H-chromen-3-yl)hepta-2,4,6-trienoic acid]
Endogenous membrane PLA2
  IC50: 5 µM
[3]
  IC50: 3 µM

## Cc1cc(Cl)c2c(c1)C=C(/C=C/C=C/C=C/C(=O)O)CO2 [Example 14, (2E,4E,6E)-7-(6-Methyl-8-chloro-2H-chromen-3-yl)hepta-2,4,6-trienoic acid]
Endogenous membrane PLA2
  IC50: 50 µM
[3]
  IC50: 20 µM

## Cc1cc(Cl)cc2c1OCC(/C=C/C=C/C=C/C(=O)O)=C2 [Example 15, (2E,4E,6E)-7-(6-Chloro-8-methyl-2H-chromen-3-yl)hepta-2,4,6-trienoic acid]
Endogenous membrane PLA2
  IC50: 50 µM
[3]
  IC50: 10 µM

## Cc1cc(C)c2c(c1)C=C(/C=C/C=C/C=C/C(=O)O)C(C)(C)O2 [Example 18, (2E,4E,6E)-7-(2,2,6,8-Tetramethyl-2H-chromen-3-yl)hepta-2,4,6-trienoic acid]
Endogenous membrane PLA2
  IC50: 30 µM
[3]
  IC50: 30 µM

## Cc1cc(Cl)cc2c1OC(C)(C)C(/C=C/C=C/C=C/C(=O)O)=C2 [Example 19, (2E,4E,6E)-7-(2,2,8-Trimethyl-6-chloro-2H-chromen-3-yl)hepta-2,4,6-trienoic acid]
Endogenous membrane PLA2
  IC50: 50 µM
[3]
  IC50: 30 µM

## O=C(O)/C=C/C=C/C=C/C1=Cc2cc(Cl)cc(Cl)c2OC1 [Example 20, (2E,4E,6E)-7-(6,8-Dichloro-2H-chromen-3-yl) hepta-2,4,6-trienoic acid]
Endogenous membrane PLA2
  IC50: 30 µM
[3]
  IC50: 8 µM

## CCOC(=O)/C=C(C)/C=C/C=C(\C)C1=Cc2cc(-c3ccccc3)ccc2OC1 [Example 25, Ethyl (2E,4E,6E)-3-methyl-7-(6-phenyl-2-H-chromen-3-yl)octa-2,4,6-trienoate]
Mouse calvaria [1]
  inhibition at 50 µM: 15%
[3]
  IC50: 5 µM

## CC(/C=C/C=C(\C)C1=Cc2cc(-c3ccccc3)ccc2OC1)=C\C(=O)O [Example 26, (2E,4E,6E)-3-Methyl-7-(6-phenyl-2H-chromen-3-yl)octa-2,4,6-trienoic acid]
Mouse calvaria [1]
  inhibition at 10 µM: 11%
  inhibition at 50 µM: 29%
Mouse calvaria [4]
  activation at 10 µM: 7%
[3]
  IC50: 5 µM

## CCOC(=O)\C=C(C)/C=C/C=C(\C)C1=Cc2cc(-c3ccccc3)ccc2OC1 [Example 27]
Mouse calvaria [1]
  inhibition at 10 µM: 11%
[3]
  IC50: 7.5 µM

## CCOC(=O)/C=C(C)/C=C/C=C(\C)C1=Cc2cc(C)ccc2OC1 [Example 32, Ethyl (2E,4E,6E)-7-(6-methyl-2H-chromen-3-yl)-3-methylocta-2,4,6-trienoate]
Mouse calvaria [1]
  inhibition at 10 µM: 14%
  inhibition at 50 µM: 12%
[3]
  IC50: 7.5 µM

## CCOC(=O)/C=C(C)/C=C/C=C(\C)C1=Cc2cc(C(C)(C)C)ccc2OC1 [Example 33, Ethyl (2E,4E,6E)-7-(6-tert.-butyl-2H-chromen-3-yl)-3-methylocta-2,4,6-trienoate]
Mouse calvaria [1]
  inhibition at 10 µM: 3%

## CCOC(=O)/C=C(C)/C=C/C=C(\C)C1=Cc2cc(C)cc(C)c2OC1 [Example 35, Ethyl (2E,4E,6E)-7-(6,8-dimethyl-2H-chromen-3-yl)-3-methylocta-2,4,6-trienoate]
Mouse calvaria [1]
  inhibition at 10 µM: 15%
  inhibition at 50 µM: 32%
Mouse calvaria [1]; parathormone (PTH) 500 ng/ml, read-out: Hyper-resorption with PTH
  inhibition at 7.5 µM: 12%
Mouse calvaria [1]; retinoic acid, read-out: Hyper-resorption with retinoic acid
  inhibition at 7.5 µM: 9%
Mouse calvaria [4]
  activation at 10 µM: 11%
[3]
  IC50: 5 µM

## CCOC(=O)/C=C(C)/C=C/C=C(\C)C1=Cc2cc(C(C)(C)C)cc(C)c2OC1 [Example 36, Ethyl (2E,4E,6E)-7-(6-tert.-butyl-8-methyl-2H-chromen-3-yl)-3-methylocta-2,4,6-trienoate]
[3]
  IC50: 5 µM

## CC(/C=C/C=C(\C)C1=Cc2cc(C(C)(C)C)ccc2OC1)=C\C(=O)O [Example 41, (2E,4E,6E)-7-(6-Tert.-butyl-2H-chromen-3-yl)-3-methylocta-2,4,6-trienoic acid]
[3]
  IC50: 4 µM
